Reference: patent US10202408B2, “Prodrugs and methods of use thereof” (Health Innovation Ventures B.V., priority 2012, dated 2019)
“Also recorded” adds a separate entry of the source.

Experiments:
[1] = test system: HCT116 MCLs over-expressing AKR1C3; experiment: Multicellular layer (MCL) clonogenic assay, HCT116 wild type versus AKR1C3 over-expressing MCLs; type: cell-based, human
Description: (§1) In parallel, a three dimensional high-cell density multi-cellular layer (MCL) clonogenic assay was performed. 1×10^6 cells of either 100% HCT-116^WT or containing 97% WT with a minor 3% HCT-116^NTR cell population were seeded into a collagen-coated Teflon microporous membrane and left to grow for 3 days. MCLs were then exposed to prodrug for 5 h. After treatment, MCLs were enzyme dissociated, diluted in fresh medium and plated to determine clonogenic survival. To discriminate clonogenic activator (NTR+) from target (NTR−) colonies, cells were plated in non-selective medium (total cells) and medium containing 1 μM puromycin (activator cells). Colonies were grown for 10 days before staining. Colonies containing >50 cells were counted. A variation of this assay was also used to assess for evidence of AKR1C3-dependent cytotoxicity. Here either 100% HCT-116W^T or 100% HCT-116^AKR1C3 cells were seeded to provide MCLs that were then exposed to prodrug.

[2] = test system: HCT116 cells engineered to over-express human aldo-ketoreductase 1C3 (AKR1C3); experiment: Low cell density IC50 (SRB) assay, HCT116 wild type versus AKR1C3 over-expressing cells; type: cell-based; conditions: 4 h exposure
Description: (§2) Compounds were subjected to testing, including low-cell density cytotoxicity assay. Cells (500 cells/well) were seeded in 96-well plates and exposed to prodrug for 4 h, washed, then left to grow for a further 5 days. The SRB assay was employed to determine IC50 values (concentration of prodrug required to inhibit proliferation by 50%). Parental HCT116 cells (HCT116 is a cell line derived from human colon cancer) and cells expressing the example nitroreductase gene nfsA from Escherichia coli were evaluated head-to-head. Parental H1299 cells (H1299 is a cell line derived from lung cancer) and cells expressing the example nitroreductase gene nfsA from Escherichia coli were evaluated head-to-head. Parental HCT116 cells and cells expressing human AKR1C3 were evaluated head-to-head. Parental H1299 cells and cells expressing human AKR1C3 were evaluated head-to-head. In a variation of these assays test compounds were assessed for their ability to give hypoxia-selective cell killing. Here wild type HCT116, H460 (H460 is a cell line derived from lung cancer), H1299 and SiHa cells (SiHa is a cell line derived from cervical cancer) were used in addition to HCT116 cells engineered to over express cytochrome P450 reductase (HCT116 POR), a human one-electron nitroreductase. Low-cell density cytotoxicity assays were performed as above under oxic conditions and compared to experiments where cells were shown 4 h of anoxia during the prodrug exposure period, before being washed free of prodrug and then left to grow for a further 5 days under oxic conditions, as above.

[3] = test system: HCT116 cells engineered to over-express E coli NfsA; experiment: Low cell density IC50 (SRB) assay, HCT116 wild type versus E coli NfsA over-expressing cells; type: cell-based, human
Description: as §2

[4] = test system: H1299 cells engineered to over-express human aldo-ketoreductase 1C3 (AKR1C3); experiment: Low cell density IC50 (SRB) assay, H1299 wild type versus AKR1C3 over-expressing cells; type: cell-based; conditions: 4 h exposure
Description: as §2

[5] = test system: bacterial nitroreductases from the NfsA and NfsB families; experiment: GFP SOS assay with nitroreductase over-expression library; type: cell-based, E. coli strain SOS-R4; conditions: single and poly mutated variants of NfsA_Ec, single-mutated variant of NfsA_Bs
[6] = test system: H1299 cells engineered to over-express E coli NfsA; experiment: Low cell density IC50 (SRB) assay, H1299 wild type versus E coli NfsA over-expressing cells; type: cell-based, human
Description: as §2

[7] = test system: HCT116 MCLs with 3% E coli NfsA-expressing cells; experiment: MCL clonogenic bystander assay, HCT116 MCLs seeded with 3% E coli NfsA-expressing cells; type: cell-based, human; conditions: 97% wild type HCT116, 3% E coli NfsA-expressing cells
Description: as §1

[8] = test system: bacterial nitroreductases from the NfsA and NfsB families; experiment: GFP SOS assay with nitroreductase over-expression library; type: cell-based, E. coli strain SOS-R4; conditions: 55 candidate nitroreductase library, 6 h challenge
Source text: The method employed the over-expression of a candidate nitroreductase gene from plasmid pUCX in an SOS reporter strain, as first described in Prosser et al., 2010, Biochem Pharmacol 79, 678-687. In order to enhance the sensitivity of the SOS reporter system, an sfiA::GFP reporter construct was integrated into a CDF-based plasmid (which contains a compatible origin of replication with pUCX) to give the pANODuet reporter plasmid for GFP screening. In addition, nfsA, nfsB, azoR, and nemA genes were deleted to minimise background metabolism, and the tolC gene deleted to minimise efflux of test compounds; this strain was designated SOS-R3. Further improvements were obtained by deleting the mdaB, ycaK, and yieF genes to minimise background metabolism, and by introducing transcriptional terminators to the pANODUET reporter plasmid. This final reporter strain was designated SOS-R4.
Stored glycerols of the 55-membered nitroreductase library in SOS-R4 were thawed and used to inoculate overnight cultures (Lysogeny Broth (LB) amended with 100 μg ml^−1 Ampicillin, 50 μg ml^−1 Spectinomycin, 0.4% glucose) that were incubated at 30° C., 200 rpm for 16 h. The next morning the GFP-SOS assay was commenced by inoculation of 195 μl fresh assay media (LB+100 μg ml^−1 Ampicillin, 50 μg ml^−1 Spectinomycin, 0.2% glucose, 50 μM IPTG) with 15 μl of overnight culture in individual wells of a 96-well plate. Plates were incubated at 30° C., 200 rpm for 2.5 h (pre-challenge period), following which cultures were diluted 1:2 by splitting 50:50 into fresh assay media (+DMSO to 0.5% final concentration) and fresh challenge media (assay media+drug to desired concentration, DMSO to 0.5% final concentration) to final volumes of 80 μl apiece in duplicate on a 384-well plate. Plates were incubated at 30° C., 200 rpm for 6 h (challenge period). GFP expression was determined at excitation 488 nm/emission 509 nm. Turbidity was determined by OD600 and fluorescence data from any replicates not found to be within 15% of the median culture turbidity were discarded.

[9] = test system: 15% E coli NfsA-expressing H1299 xenografts; experiment: Tumour growth delay, 15% E coli NfsA-expressing H1299 xenografts; type: in vivo, NIH-III mice
Description: Animals weighed 18-25 g at the time of tumour inoculation. Tumours were grown subcutaneously on the right flank of mice by inoculating cells grown in tissue culture (1×10^7 cells in 100 uL serum free α-MEM). Tumour sizes were monitored three times weekly using electronic callipers and treatments were initiated once tumour diameter reached ≥7 mm.
Tumour bearing mice were randomised into the appropriate treatment groups and tumour size and body weight recorded. Test compounds were formulated on the day of the experiment and kept in foil-wrapped tubes out of direct fluorescent light. If recruitment of animals occurred over multiple days, the drug stocks were aliquoted into tubes and frozen once at […] until required. Mice were treated with a single (or BID) dose of prodrug by intraperitoneal injection and thereafter tumour size and body weight was monitored every second day. Tumour volume was calculated as π (l×w×w)/6, where l is the major axis and w is the perpendicular minor axis. Animals were culled when they had reached the appropriate survival endpoint or when body weight loss exceeded 20% of the pre-treatment value.

[10] = test system: wild type SiHa tumour xenografts; experiment: Excision assay with and without radiation, wild type SiHa tumour xenografts; type: in vivo, NIH-III nude mice
Description: Tumours were grown subcutaneously in the flank of NIH-III mice by inoculating cells grown in tissue culture. Tumours were monitored using electronic calipers. When tumours reached treatment size, mice were randomized to treatment groups (five to seven per group). Compounds were given as single (or BID) intraperitoneal doses alone or 5 min after whole body irradiation (^60Co source). Eighteen hours after treatment, tumours were excised, weighed, minced, dissociated enzymatically, and plated to determine clonogenicity. Clonogens/gram of tissue were calculated relative to controls and effects of treatment were tested for significance (ANOVA with Dunnett's).

Compound	AKR1C3-dependent clonogenic cell kill in MCLs [1]	AKR1C3-mediated cytotoxicity (IC50 wild type versus AKR1C3) [2]	E coli NfsA-mediated cytotoxicity (IC50 wild type versus NfsA) [3]	activity with mutated nitroreductase variants [5]	E coli NfsA-mediated cytotoxicity (IC50 wild type versus NfsA) [6]	bystander cell killing in MCLs [7]	metabolism by bacterial nitroreductases (SOS response) [8]	further results
CCCN(CCO)C(=O)c1cc([N+](=O)[O-])cc([N+](=O)[O-])c1N(CCBr)CCBr [compound 9, reference compound]	capable of producing AKR1C3-dependent cell ablation	appears to be AKR1C3-negative; also recorded: appear negative for AKR1C3 dependent cell sensitivity						
CCS(=O)(=O)c1cc([N+](=O)[O-])c(C(=O)N2CCN(C(C)C)CC2)cc1N(CCBr)CCBr [compound 27, (5-(bis(2-bromoethyl)amino)-4-(ethylsulfonyl)-2-nitrophenyl)(4-isopropylpiperazin-1-yl)methanone]	do not cause AKR1C3-dependant cytotoxicity	less susceptible to AKR1C3-mediated cytotoxicity than PR-104A	produce E coli NfsA-mediated cytotoxicity	demonstrated	produce E coli NfsA-mediated cytotoxicity	display evidence of metabolism by the 3% E coli NfsA-expressing cells with bystander cell killing of the 97% non-expressing neighbour cells	substrates for multiple wild type and mutant bacterial nitroreductases from the NfsA and NfsB families	AKR1C3-mediated cytotoxicity (IC50 wild type versus AKR1C3) [4]: less susceptible to AKR1C3-mediated cytotoxicity than PR-104A
CCS(=O)(=O)c1cc([N+](=O)[O-])c(C(=O)N2CCN(C)CC2)cc1N(CCBr)CCBr [compound 25, (5-(bis(2-bromoethyl)amino)-4-(ethylsulfonyl)-2-nitrophenyl)(4-methylpiperazin-1-yl)methanone]	do not cause AKR1C3-dependant cytotoxicity	less susceptible to AKR1C3-mediated cytotoxicity than PR-104A	produce E coli NfsA-mediated cytotoxicity	demonstrated	produce E coli NfsA-mediated cytotoxicity	display evidence of metabolism by the 3% E coli NfsA-expressing cells with bystander cell killing of the 97% non-expressing neighbour cells	substrates for multiple wild type and mutant bacterial nitroreductases from the NfsA and NfsB families	AKR1C3-mediated cytotoxicity (IC50 wild type versus AKR1C3) [4]: less susceptible to AKR1C3-mediated cytotoxicity than PR-104A
CCS(=O)(=O)c1cc([N+](=O)[O-])c(C(=O)N(C)CCOP(=O)(O)O)cc1N(CCBr)CCBr [compound 11, 2-(5-(bis(2-bromoethyl)amino)-4-(ethylsulfonyl)-N-methyl-2-nitrobenzamido)ethyl dihydrogen phosphate]								tumour growth delay ([9]; mixed HCT116 and H1299 xenografts, 15% E coli NfsA cells, single (or BID) intraperitoneal dose): profound tumour growth delay; E coli NfsA mediated anti-tumour efficacy (mean tumour volume) ([9]; single dose, 10, 22, 60 and 11 at 750, 422, 1330 and 1330 umol/kg): display significant E coli NfsA mediated anti-tumour efficacy; cell killing in combination with radiation versus radiation alone ([10]; HCT116 POR and wild type SiHa xenografts, 10 or 15Gy, single (or BID) intraperitoneal dose): increased cell killing above what could be achieved with radiation alone; hypoxic cell kill in vivo (log cell kill) ([10]; with or without 10Gy radiation, 22 at 422, 300 and 11 at 1330, 23 at 1000 umol/kg): significant hypoxic cell kill in vivo
CC(C)N(CCO)C(=O)c1cc([N+](=O)[O-])cc([N+](=O)[O-])c1N(CCBr)CCBr [compound 8, reference compound]		appear negative for AKR1C3 dependent cell sensitivity						
CCN(CCO)C(=O)c1cc([N+](=O)[O-])cc([N+](=O)[O-])c1N(CCBr)CCBr [compound 7, reference compound]	capable of producing AKR1C3-dependent cell ablation							
CS(=O)(=O)OCCN(CCBr)c1ccc([N+](=O)[O-])cc1C(=O)NCCO [compound 64, 2-((2-bromoethyl)(2-((2-hydroxyethyl)carbamoyl)-4-nitrophenyl)amino)ethyl methanesulfonate]	do not cause AKR1C3-dependant cytotoxicity	less susceptible to AKR1C3-mediated cytotoxicity than PR-104A	produce E coli NfsA-mediated cytotoxicity	demonstrated	produce E coli NfsA-mediated cytotoxicity	display evidence of metabolism by the 3% E coli NfsA-expressing cells with bystander cell killing of the 97% non-expressing neighbour cells	substrates for multiple wild type and mutant bacterial nitroreductases from the NfsA and NfsB families	
CS(=O)(=O)OCCN(CCBr)c1c(C(=O)NCCO)cc([N+](=O)[O-])cc1[N+](=O)[O-] [PR-104A, 2-((2-bromoethyl)(2-((2-hydroxyethyl)carbamoyl)-4,6-dinitrophenyl)amino)ethyl methanesulfonate, reference compound]			produce E coli NfsA-mediated cytotoxicity		produce E coli NfsA-mediated cytotoxicity			
